# Data: patent publication US8758769B2, “Composition for preventing and treating acetaminophen inducing liver injury comprising the protein extract from Porphyra yezoensis” (Pukyong National University Industry Academic Cooperation …, priority 2006, dated 2014)
# How the values were obtained:
# [1] = test system: PCNA and caspase-3 in liver cell; assay: Liver cell injury inhibition by seaweed protein: PCNA and caspase-3 expression (western blot); type: cell-based; conditions: 20 mM AAP with or without seaweed protein
# Protocol: Through the above results, it is confirmed that the cell apoptosis of the liver cell is induced by the increase of the AAP concentration and accordingly, the seaweed protein and AAP are processed together and the liver injury inhibition effect of the seaweed protein by AAP is confirmed.
# At first, the degree of the PCNA protein expression capable of securing the recovery of the injured cell is confirmed. For this, a liver tissue is homogenized by lysis buffer (25 mM HEPES, pH 7.5, 5 mM EDTA, 2 mM DTT, 0.1% CHAPS) containing the protease inhibitor and then centrifuged by 14,000×g at 4° C. Thereafter, the protein concentration of the obtained upper layer solution is measured by means of a BCA protein assay kit. A loading process is performed by 50[…] per each lane, an electrophoresis process is performed by SDS-PAGE, and thereafter it is moved toward the PVDF membrane (Millipore, USA). At this time, the rainbow molecular marker (amersham) is used as the standard molecular weight. In the separated protein, the expressin of the caspase-3 protein is confirmed by means of Super Signal West Pico Chemiluminescent Substrate (pierce biotechnology incorporation, USA). […]
# [2] = test system: DNA within the liver tissue; assay: DNA fragmentation in the liver tissue; type: in vivo, rat; conditions: rats, AAP 700 mg/kg
# Description: To confirm the modes of the cell apoptosis, DNA within the liver tissue is extracted and then the degree of fragmentation is examined.
# [3] = test system: GSH (Glutathione) in the liver tissue; assay: Glutathione content in the liver tissue; type: in vivo, rat; conditions: rats, AAP 700 mg/kg; compared with the control group of 100%
# Protocol: Accordingly, the GSH activity in the liver tissue is measured. For this, the liver tissue is homogenized by 5% of sulfosalicylic acid, then frozen by the liquid nitrogen and thereafter a thaw process is executed repeatedly by twice in a cistern of 37° C. Thereafter, the defrosted liver tissue is left for 5 minutes At 4° C. and centrifuged at 4° C., 1,000×g, for 10 minutes, so that the upper solution is obtained. The upper solution and the standard solution within the GSH assay kit are divided into a 96-well plate, respectively, thereafter a working mixture is added to the 96-well plate, and a reaction is progressed at the room temperature for 5 minutes. After 5 minutes, NADPH is inserted into the above plate and mixed through a pipet and then the absorbance is measured by the interval of 5 minutes at 412 nm.
# caspase-3 = assay: Caspase-3 activity in the liver tissue (DEVD-pNA substrate); type: in vivo, rat; conditions: rats, AAP 700 mg/kg; control group 100%
# Protocol: Accordingly, to confirm the cell apoptosis when generating the liver injury by AAP, the activity of the caspase-3 is measured. For this, the liver tissue is homogenized by the lysis buffer (25 mM HEPES, pH 7.5, 5 mM EDTA, 2 mM DTT, 0.1% CHAPS) containing the protease inhibitor and centrifuged by 14,000×g at 4° C. The protein concentration of the obtained upper solution is measured by a BCA protein assay kit. Thereafter, 80[…] of protein is inserted into the 96-well, then the DEVD-pNA substrate is inserted, thereafter, a reaction is progressed for 4 hours at 37° C. The absorbance is measured at 405 nm.
# [4] = rats, mean ± S.D. of 10 per group; AAP 700 mg/kg into the abdominal cavity, seaweed protein orally for two weeks
# Protocol: Animals for the experiment are male rats (body weight of 100±10 g), as Sparague Dawley of four-week-old, obtained from Hyochang science. 10 rats are divided into three groups, respectively (control group, AAP sole administration group and AAP+seaweed protein administration group), bred in row breeding cages for 7 days as a domestication preparation breeding. At this time, the temperature (22±1° C.), humidity (50±10%) and brightness (12 hours, 08˜18:00) of a breeding room are strictly controlled. After performing the domestication preparation breeding, general feed and water are freely supplied and then a saline solution (control group and AAP sole administration group) and the seaweed protein are orally administrated for two weeks. 700 mg/kg of AAP melted by DMSO is administrated into the abdominal cavity and after 24 hours, heads of rats are cut and then a blood-gathering process is performed. […] And the liver is extracted and washed by the saline solution and thereafter the weight thereof is measured and a part thereof is fixed into the bouin solution (picric acid:formalin:glacial acid=15:5:1). […]
# To examine the influence on the liver tissue, liver weight and the change of body weight of the seaweed protein separated and purified at the example 1, the liver tissue of a rat is extracted and its weight is measured.
# GOT and GPT in the serum = assay: GOT and GPT in serum; type: in vivo, rat; conditions: rats, AAP 700 mg/kg, 24 hours
# Protocol: GOT and GPT in the serum as liver function indicators are enzymes which reflect the change and necrosis of the liver cell and spilled in great quantities in the blood when damaging the liver tissue. GOT/GPT in the serum are measured by using a kit for measuring GOT (Glutamic oxaloacetic transaminase) and GPT (Glutamic pyruvic transaminase) activity measuring serum transaminase (Shinyang Chemistry, Republic of Korea) manufactured by Retiman-Frankle's manner through a spectrum photometer (Ultrospec 2001 pro. amersham phamasia biotech, United Kingdom) at 505 nm and then the result is shown in FIG. 4.
# liver tissue of a rat = assay: Liver appearance and H&E histology of liver tissue, AAP induced liver injury; type: in vivo; conditions: rats, AAP 700 mg/kg abdominal administration, 24 hours
# Protocol: For this, the liver tissue of the white rat bred by each experiment group is extracted and lightly washed by the saline solution so that blood is removed. A portion of the liver tissue is cut and then the cut liver tissue is cut into thickness of 0.5 cm and fixed into Bouin fixation solution. Thereafter, the cut liver tissue is inserted into a tissue capsule within 24 hours by using the same fixation solution and fixed again. Thereafter, the fixed tissue is washed, inserted into an autotechnicon, dehydrated in the sequencing concentration alcohol and processed transparently by xylene. At an embedding center, paraffin is infiltrated into the tissue capsule and an embedding process is performed, so that a block is manufactured. The block is cut thinly with thickness of 5[…] by a rotary microtome and the cut blocks are left in a floating thermostat in order to be spreaded fully and then attached onto a clean slide glass. Thereafter, to firmly adhere the slide glass and the tissue cut pieces, the slide glass with the tissue cut pieces is left at a slide warmer maintaining temperature of about 60° C. Finally, to basically observe the arrangement of cell and the morphological change, all tissue pieces are dyed by Hematoxylin & Eosin capable of separately seeing the nucleus and cytoplasm and thereafter, observed by an optical microscopy.
smiles,measurement,setting,value
"CC(=O)Nc1ccc(O)cc1 [AAP, Acetaminophen]",Cleaved caspase-3 with activation (FIG. 9),[1],the activated and cleaved caspase-3 is increased
same,DNA fragmentation in the liver tissue (FIG. 6(B)),[2],a certain DNA fraction is observed
same,GSH content in the liver tissue,[3],85.39±4.81%
same,Activity of caspase-3 in the liver tissue,caspase-3,143.38±10.25%
same,Final body weight,[4],299 ± 14.92 g
same,Weight of liver,[4],10.86 ± 0.9 g
same,GPT in serum,GOT and GPT in the serum; control group 28.83±7.9,44.83±11.7 karmen
same,GOT in serum,GOT and GPT in the serum; control group 158.97±13.4,187.95±20.7 karmen
same,"Colour/appearance of the liver (degree of liver injury, FIG. 2)",liver tissue of a rat,the liver tissue represents the bright brown
same,"Inside of the liver tissue by optical microscopy, H&E dyeing (FIG. 3)",liver tissue of a rat,plural nucleus decomposition positions are observed about the central vein
